# Calls of active or inactive are those of the source. The calls are words filed in the database; no cut-off is given here.
# What was measured:
# [1] = system: Human immunodeficiency virus 1; assay: Antiviral activity against HIV1 infected patient assessed as reduction in plasma viremia at 4 mg administered daily for 7 days measured 24 hrs post-last dose by qRT-PCR analysis; assay type: functional, organism-based
# [2] = system: Human immunodeficiency virus 1; assay: Potency index, ratio of lamivudine EC50 to test compound EC50 for antiviral activity against VSVG pseudotyped HIV1 infected in HEK293 cells; assay type: functional
# [3] = Binding affinity to HIV1 Vif and CBFbeta-ELOB-ELOC complex (unknown origin) assessed as compound-complex adduct formation measured after 150 secs by CM5 chip based assay
# [4] = Cmax in monkey PBMC assessed as FNC-TP level at 6 mg/kg, po administered as single dose by LC-MS/MS analysis; assay type: ADME, organism-based, Macaca mulatta; parameters: dose 6 mg/kg, route oral; conditions: rhesus monkey, in vivo
# [5] = Tmax in monkey PBMC assessed as FNC-TP level at 1 mg/kg, po administered as single dose by LC-MS/MS analysis; assay type: ADME, organism-based, Macaca mulatta; conditions: rhesus monkey, in vivo
# [6] = target: Virion infectivity factor (Human immunodeficiency virus type 1 group M subtype B (isolate NY5)(HIV-1)) (UniProt P12504); assay: Inhibition of HIV1 HA-tagged Vif expressed in HEK293T cells co-expressing Myc-tagged pcDNA-APOBEC3G and pcDNA-ubiquitin-His assessed as reduction in Vif-mediated A3G polyubiquitination at 3.5 to 35 nM measured after 48 hrs by Western blot analysis; assay type: cell-based; conditions: Human immunodeficiency virus 1, HEK-293T
# Chain of Virion infectivity factor (Human immunodeficiency virus type 1 group M subtype B (isolate NY5)(HIV-1)) (P12504 whole entry): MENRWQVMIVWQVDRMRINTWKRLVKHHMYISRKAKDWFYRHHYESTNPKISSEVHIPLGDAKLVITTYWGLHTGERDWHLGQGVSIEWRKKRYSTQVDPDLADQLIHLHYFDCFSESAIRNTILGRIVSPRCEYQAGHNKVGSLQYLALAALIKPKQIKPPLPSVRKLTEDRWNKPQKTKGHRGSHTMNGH
# [7] = Cytotoxicity against HEK293 cells assessed as cell viability by MTT assay; assay type: cell-based; conditions: human
# [8] = Elimination half life in monkey PBMC assessed as FNC-TP level at 1 mg/kg, po administered as single dose by LC-MS/MS analysis; assay type: ADME, organism-based, Macaca mulatta; conditions: rhesus monkey, in vivo
# [9] = Selectivity index, ratio of CC50 for human Hut/CCR5 cells to EC50 for antiviral activity against JRFL pseudotyped HIV1 infected in human Hut/CCR5 cells; assay type: toxicity, cell-based; conditions: read-out: Ratio CC50/EC50
# [10] = AUC (0 to 24 hrs) in monkey PBMC assessed as FNC-TP level at 1 mg/kg, po administered as single dose by LC-MS/MS analysis; assay type: ADME, organism-based, Macaca mulatta; parameters: time < 24 hr, dose 1 mg/kg, route oral; conditions: rhesus monkey, in vivo
# [11] = system: Human immunodeficiency virus 1; assay: Antiviral activity against HIV1 infected patient assessed as […] in CD4-positive T cell count at 4 mg administered daily for 7 days measured 24 hrs post-last dose by immunostaining based flow cytometry analysis; assay type: functional, organism-based
# [12] = Cmax in monkey plasma at 1 mg/kg, po administered as single dose by LC-MS/MS analysis; assay type: ADME, organism-based, Macaca mulatta; parameters: dose 1 mg/kg, route oral; conditions: rhesus monkey
# [13] = Tmax in Sprague-Dawley rat thymus at 0.5 mg/kg, po administered as single dose via gavage by LC-MS/MS analysis; assay type: ADME, organism-based
# [14] = system: Human immunodeficiency virus 1; assay: Antiviral activity against VSVG pseudotyped HIV1 infected in HEK293 cells preincubated for 3 hrs followed by compound washout and subsequent compound redosing and measured after 72 hrs by luciferase reporter gene based assay; assay type: functional, organism-based; conditions: Human immunodeficiency virus 1, HEK293
# [15] = Effect on CD69 surface expression in IL2-induced human PBMC-derived CD14-positive monocytes at 100 nM measured after 48 hrs by immunostaining based flow cytometry; assay type: ADME; conditions: 0.1 µM
# [16] = Effect on CD25 surface expression in IL2-induced human PBMC-derived CD14-positive monocytes at 100 nM measured after 48 hrs by immunostaining based flow cytometry; assay type: ADME; conditions: 0.1 µM
# [17] = AUC (0 to 24 hrs) in monkey PBMC assessed as FNC-TP level at 6 mg/kg, po administered as single dose by LC-MS/MS analysis; assay type: ADME, organism-based, Macaca mulatta; parameters: dose 6 mg/kg, time < 24 hr, route oral; conditions: rhesus monkey, in vivo
# [18] = Cytotoxicity against human Hut/CCR5 cells assessed as reduction in cell viability at 0.1 to 10 nM measured after 120 hrs by MTT assay; assay type: cell-based; conditions: 0.01 µM
# [19] = system: Human immunodeficiency virus 1; assay: Synergistic antiviral activity against JRFL pseudotyped HIV1 infected in human Hut/CCR5 cells assessed as combination index in presence of rilpivirine by luciferase reporter gene based assay; assay type: functional
# [20] = target: Virion infectivity factor (Human immunodeficiency virus type 1 group M subtype B (isolate NY5)(HIV-1)) (UniProt P12504); assay: Inhibition of HIV1 HA-tagged Vif expressed in HEK293T cells co-expressing eGFP-tagged pcDNA-APOBEC3G assessed as reduction in Vif-mediated A3G degradation at 10 nM measured after 48 hrs by flow cytometry; assay type: cell-based; conditions: Human immunodeficiency virus 1, HEK-293T
# [21] = Tmax in monkey plasma at 1 mg/kg, po administered as single dose by LC-MS/MS analysis; assay type: ADME, organism-based, Macaca mulatta; conditions: rhesus monkey
# [22] = Cytotoxicity against human Hut/CCR5 cells assessed as reduction in cell viability measured after 72 hrs by MTT assay; assay type: cell-based
# [23] = Elimination half life in monkey PBMC assessed as FNC-TP level at 6 mg/kg, po administered as single dose by LC-MS/MS analysis; assay type: ADME, organism-based, Macaca mulatta; conditions: rhesus monkey, in vivo
# [24] = system: Human immunodeficiency virus 1; assay: Antiviral activity against JRFL pseudotyped HIV1 infected in human Hut/CCR5 cells assessed as time needed to reach 50% reduction of virus infection at 1 nM incubated with cells for 4 hrs prior to compound washout followed by viral infection and measured after 72 hrs by luciferase reporter gene assay; assay type: functional
# [25] = Cmax in monkey plasma at 6 mg/kg, po administered as single dose by LC-MS/MS analysis; assay type: ADME, organism-based, Macaca mulatta; parameters: dose 6 mg/kg, route oral; conditions: rhesus monkey
# [26] = Drug metabolism in human PBMC-derived CD14-positive monocytes assessed as FNC-TP formation at 350 nM measured after 4 hrs by LC-MS/MS analysis; assay type: ADME; conditions: 0.35 µM
# [27] = system: Human immunodeficiency virus 1; assay: Antiviral activity against JRFL pseudotyped HIV1 infected in human Hut/CCR5 cells preincubated for 3 hrs followed by compound washout and subsequent compound redosing and measured after 72 hrs by luciferase reporter gene based assay; assay type: functional, organism-based; conditions: Human immunodeficiency virus 1, Hut/CCR5
# [28] = Tmax in monkey plasma at 6 mg/kg, po administered as single dose by LC-MS/MS analysis; assay type: ADME, organism-based, Macaca mulatta; conditions: rhesus monkey
# [29] = Cmax in monkey PBMC assessed as FNC-TP level at 1 mg/kg, po administered as single dose by LC-MS/MS analysis; assay type: ADME, organism-based, Macaca mulatta; parameters: dose 1 mg/kg, route oral; conditions: rhesus monkey, in vivo
# [30] = Drug metabolism in human PBMC-derived CD4-positive T cells assessed as FNC-TP formation at 350 nM measured after 4 hrs by LC-MS/MS analysis; assay type: ADME; conditions: 0.35 µM
# [31] = Effect on CD25 surface expression in IL2-induced human PBMC-derived CD4-positive T cells at 100 nM measured after 48 hrs by immunostaining based flow cytometry; assay type: ADME; conditions: 0.1 µM
# [32] = system: Homo sapiens; assay: In vivo inhibition of Vif-induced A3G degradation in HIV1 infected patient assessed as increase in A3G expression in CD4-positive T cells at 4 mg administered daily for 7 days measured 24 hrs post-last dose by Western blot analysis; assay type: functional, organism-based
# [33] = Ratio of Cmax in monkey plasma at 6 mg/kg, po administered as single dose measured after 1 hr to Cmax in monkey plasma at 6 mg/kg, po administered as single dose measured after 24 hrs; assay type: ADME, organism-based, Macaca mulatta; conditions: rhesus monkey, in vivo
# [34] = Tmax in monkey PBMC assessed as FNC-TP level at 6 mg/kg, po administered as single dose by LC-MS/MS analysis; assay type: ADME, organism-based, Macaca mulatta; conditions: rhesus monkey, in vivo
# [35] = Effect on CD69 surface expression in IL2-induced human PBMC-derived CD4-positive T cells at 100 nM measured after 48 hrs by immunostaining based flow cytometry; assay type: ADME; conditions: 0.1 µM
compound,measurement,setting,value
[N-]=[N+]=N[C@]1(CO)O[C@@H](n2ccc(N)nc2=O)[C@@H](F)[C@@H]1O [RO-0622],Activity,[1],Active
same,Ratio EC50,[2],4700
same,Activity,[3],36%
same,Cmax,[4],4.07 nM
same,Tmax,[5],6 h
same,inhibition,[6],Active
same,CC50,[7],≥ 25000 nM
same,beta t1/2,[8],133.15 h
same,selectivity ratio,[9],25000
same,AUC,[10],0.09933 µM·h
same,Activity,[11],inactive
same,Cmax,[12],196 nM
same,Tmax,[13],7 to 12 h
same,EC50,[14],0.063 nM
same,Activity,[15],Non-Toxic
same,Activity,[16],Non-Toxic
same,AUC,[17],0.24922 µM·h
same,Activity,[18],Non-Toxic
same,CI50,[19],0.113
same,CI75,[19],0.0902
same,CI90,[19],0.07208
same,CI95,[19],0.06194
same,inhibition,[20],Active
same,Tmax,[21],1 h
same,CC50 at 72 h,[22],340 nM
same,beta t1/2,[23],112.4 h
same,Time,[24],83.14 h
same,Cmax,[25],2070 nM
same,Drug metabolism,[26],Metabolite_Detected
same,EC50,[27],0.0136 nM
same,Tmax,[28],1 h
same,Cmax,[29],2.1 nM
same,Drug metabolism,[30],Metabolite_Detected
same,Activity,[31],Non-Toxic
same,inhibition,[32],Active
same,Ratio,[33],320
same,Tmax,[34],6 h
same,Activity,[35],Non-Toxic

# From ChEMBL document CHEMBL4619799, “Mechanistic Insight into Antiretroviral Potency of 2'-Deoxy-2'-β-fluoro-4'-azidocytidine (FNC) with a Long-Lasting Effect on HIV-1 Prevention” (J Med Chem, 2020)
